Here are results for 6 compounds from paper PMC467089, “Click estradiol dimers with novel aromatic bridging units: synthesis and anticancer evaluation” (Journal of Enzyme Inhibition and Medicinal Chemistry, 2024).

The subject of one series is HUVEC cells. Briefly: Endothelial cell tube formation angiogenesis assay. The format is cell-based, human. To be noted: 60 nM, 24 h, Matrigel.
Another series deals with T1, porcine brain tubulin (Sus scrofa, UniProt P02550+P02554).
T1 construct: Polymerisation of porcine brain tubulin (>99% purity) was measured; purchased Cytoskeleton, Denver, CO; host or cells: porcine brain (tissue-purified)
Details: method as in PMID 36592487. To be noted: dimers of the previous study; ref [10]; cited from earlier work.

Series [1] is described as follows: MTS cytotoxicity assay, HUVEC. The format is cell-based. To be noted: human; MTS assay, 72-h incubation, mean ± SD of 3 independent experiments; read-out: IC50 cytotoxic activity HUVEC. Summed up: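 Viability is measured by MTS after cells, seeded overnight, receive fourfold-diluted compounds for 72 h at 37 °C.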
The test system of series [2] is CEM-DNR (daunorubicin resistant variant of CCRF-CEM). Description: MTS cytotoxicity assay, CEM-DNR. Format: cell-based, human. To be noted: Homo sapiens, CEM-DNR, 72 h, read-out: IC50 cytotoxic activity CEM-DNR. Summed up:
(§1)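 MTS read-out after 72 h compound exposure at 37 °C. Cells plated the day before, treated with fourfold serial dilutions from DMSO stocks; duplicate wells, three independent experiments.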
In general terms: Formazan colour is commonly taken as a measure of viable cells.

For another series, the system named is U2OS (osteosarcoma). Briefly: MTS cytotoxicity assay, U2OS. The format is cell-based, human. To be noted: Homo sapiens, U2OS, 72 h, read-out: IC50 cytotoxic activity U2OS. Summed up: as §1
For series [3], the system named is K562-TAX (paclitaxel-resistant variant of K562). Description: MTS cytotoxicity assay, K562-TAX. To be noted: Homo sapiens, K562-Tax, 72 h, read-out: IC50 cytotoxic activity K562-TAX. The format is cell-based, human. Summed up:
as §1

The nature of series [4]: MTS cytotoxicity assay, BJ. To be noted: human; MTS assay, 72-h incubation, mean ± SD of 3 independent experiments; read-out: IC50 cytotoxic activity BJ. The format is cell-based. In a few lines:
as §1

Series [5] is described as follows: MTS cytotoxicity assay, MRC-5. The format is cell-based. To be noted: human; MTS assay, 72-h incubation, mean ± SD of 3 independent experiments; read-out: IC50 cytotoxic activity MRC-5. Summed up:
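Cells kept in recommended medium with 10% foetal calf serum and penicillin/streptomycin at 37 °C, 5% CO2, seeded overnight, then exposed to fourfold serial DMSO dilutions of compound for 72 h. Viability was read with MTS reagent; technical duplicates, three biological replicates.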

Series [6] concerns A549 (lung adenocarcinoma). Briefly: MTS cytotoxicity assay, A549. The format is cell-based, human. To be noted: Homo sapiens, A549, 72 h, read-out: IC50 cytotoxic activity A549. In a few lines:
as §1

Another series concerns U2OS cells. Briefly: Immunofluorescence of microtubules / mitotic spindle. Format: cell-based, human. To be noted: 1 µM, 24-h incubation. The text has this:
In addition, the presence of aster-like tubulin structures indicated the failure in microtubule elongation (Figure 4, ED5). […] The observed intracellular effects of ED3 and ED5 are consistent with data from in vitro assembly assays and cell cycle analyses, thereby strongly supporting the proposed antimitotic mechanisms of these EDs. […] Importantly, cytotoxic IC50 values may vary depending on the duration of exposure to the drug. A more extended exposure could lead to a decrease in the IC50 value, and vice versa. This temporal factor could also contribute to the observed differential sensitivity among the cell lines. The detailed mechanism and the extent to which these cellular and molecular dynamics (MD) contribute to the observed phenomenon might necessitate further investigation and experimentation.
U2OS cells, cultivated on coverslips, underwent a PBS wash and were then fixed in a solution of 3% paraformaldehyde in a buffer containing 10 mM MES, 150 mM NaCl, 5 mM EGTA, 5 mM MgCl2, 5 mM glucose, adjusted to a pH of 6.1. The nuclei were made visible using Hoechst 33342. Subsequently, a 60-min blocking step with 5% goat serum in PBS (SpinChem, Seattle, WA) was followed by a 60-min incubation with α-tubulin (DM1A) mouse monoclonal antibody (Cell Signaling, Danvers, MA) in PBS supplemented with 1% BSA and 0.3% Triton X-100. Visualisation was achieved using Alexa Fluor-488 conjugated anti-mouse antibodies (Life Technologies, Carlsbad, CA). Between each step, the samples underwent a series of three 5-min washes with PBS. Finally, the samples were mounted using Vectashield Mounting Medium with DAPI and imaged utilising a Zeiss spinning disk confocal microscope equipped with CSU-X1 unit (Yokogawa, Musashino, Japan)[10].

T1 sequence (P02550 whole entry): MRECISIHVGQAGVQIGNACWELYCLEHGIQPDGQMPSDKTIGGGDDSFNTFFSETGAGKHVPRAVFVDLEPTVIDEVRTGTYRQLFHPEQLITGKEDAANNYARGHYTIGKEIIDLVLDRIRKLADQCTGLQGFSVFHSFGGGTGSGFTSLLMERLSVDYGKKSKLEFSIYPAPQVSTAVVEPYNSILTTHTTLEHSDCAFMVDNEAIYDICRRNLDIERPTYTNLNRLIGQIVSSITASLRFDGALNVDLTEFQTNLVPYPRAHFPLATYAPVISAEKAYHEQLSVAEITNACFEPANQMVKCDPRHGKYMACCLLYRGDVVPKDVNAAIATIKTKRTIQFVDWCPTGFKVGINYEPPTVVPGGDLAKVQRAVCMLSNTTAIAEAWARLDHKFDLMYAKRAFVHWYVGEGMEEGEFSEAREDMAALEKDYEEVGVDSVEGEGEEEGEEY
T1 sequence (P02554 whole entry): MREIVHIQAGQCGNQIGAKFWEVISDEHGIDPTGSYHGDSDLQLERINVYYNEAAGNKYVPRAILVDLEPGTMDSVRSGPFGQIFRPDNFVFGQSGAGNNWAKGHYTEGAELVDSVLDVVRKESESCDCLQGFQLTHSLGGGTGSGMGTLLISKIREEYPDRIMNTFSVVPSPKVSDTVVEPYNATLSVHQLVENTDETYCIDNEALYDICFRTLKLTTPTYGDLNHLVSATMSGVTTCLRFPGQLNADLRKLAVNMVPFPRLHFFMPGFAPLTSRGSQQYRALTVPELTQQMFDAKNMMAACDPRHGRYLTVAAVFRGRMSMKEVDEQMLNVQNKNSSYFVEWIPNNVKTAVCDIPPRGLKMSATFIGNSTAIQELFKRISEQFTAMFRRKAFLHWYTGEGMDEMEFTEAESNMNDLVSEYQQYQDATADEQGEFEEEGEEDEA
Method for HUVEC cells: The experiment was performed in 96-well plates pre-coated with 50 μL of growth factor reduced basement membrane matrix Matrigel (Corning, Corning, NY). The coating was set by incubating the plates for 1 h at 37 °C. Subsequently, HUVEC cells were seeded at a density of 15 000 cells per well, and dissolved test substances were added to this layer in a total volume of 100 μL. The assay plates were then incubated for 24 h to facilitate endothelial tube formation. After this incubation, the cells were stained with Hoechst 33342 (Thermo Fisher Scientific, Waltham, MA) to a final concentration of 10 μM and calcein AM (Invitrogen, Carlsbad, CA) to a final concentration of 2 µg/mL for 30 min, followed by visualisation in DIC and fluorescent modes using a Zeiss fluorescent microscope (Oberkochen, Germany).

With `Cc1ccc(C(=O)Nc2ccc(S(=O)(=O)O)c3cc(S(=O)(=O)O)cc(S(=O)(=O)O)c23)cc1NC(=O)c1cccc(NC(=O)Nc2cccc(C(=O)Nc3cc(C(=O)Nc4ccc(S(=O)(=O)O)c5cc(S(=O)(=O)O)cc(S(=O)(=O)O)c45)ccc3C)c2)c1` [suramine], the “endothelial cell tube formation (in words)” value in the series with HUVEC cells is given as “prevented endothelial cell tube formation”.

With `C[C@]12CC[C@@H]3c4ccc(O)cc4CC[C@H]3[C@@H]1CC[C@@]2(O)c1cn(CCCCCn2cc([C@]3(O)CC[C@H]4[C@@H]5CCc6cc(O)ccc6[C@H]5CC[C@@]43C)nn2)nn1` [D1], on porcine brain tubulin, the Tubulin polymerisation inhibition was 65.0%.

Take `C[C@]12CC[C@@H]3c4ccc(O)cc4CC[C@H]3[C@@H]1CC[C@@]2(O)c1cn(CCNCCn2cc([C@]3(O)CC[C@H]4[C@@H]5CCc6cc(O)ccc6[C@H]5CC[C@@]43C)nn2)nn1` [D3]: at porcine brain tubulin, the Tubulin polymerisation inhibition was 36.8%.

With `C[C@]12CC[C@@H]3c4ccc(O)cc4CC[C@H]3[C@@H]1CC[C@@]2(O)c1cn(CCOCCn2cc([C@]3(O)CC[C@H]4[C@@H]5CCc6cc(O)ccc6[C@H]5CC[C@@]43C)nn2)nn1` [D2], on porcine brain tubulin, the Tubulin polymerisation inhibition is reported as 79.1%.

For the compound `COc1cc(CN(CCn2cc([C@]3(O)CC[C@H]4[C@@H]5CCc6cc(O)ccc6[C@H]5CC[C@@]43C)nn2)CCn2cc([C@]3(O)CC[C@H]4[C@@H]5CCc6cc(O)ccc6[C@H]5CC[C@@]43C)nn2)ccc1O` [D9], the Tubulin polymerisation inhibition on porcine brain tubulin is given as 49.6%.

A word on the IC50: it is the concentration that inhibits the measured activity by half. On to `COc1cc2c(c(OC)c1OC)-c1ccc(OC)c(=O)cc1[C@@H](NC(C)=O)CC2` [Colchicine, reference compound], for which the IC50 at 72 h in series [1] was less than 12.2 nM; in series [4], greater than 50000 nM; in [5] it was 55 ± 29 nM. Besides, the IC50 in series [2] amounted to 1020 ± 210 nM; with U2OS (osteosarcoma) it was 28 ± 14 nM; in [3], 1830 ± 190 nM; in [6], 47 ± 28 nM. Also, the “endothelial cell tube formation (in words)” value in the series with HUVEC cells is “prevented endothelial cell tube formation”. The “microtubule organisation in mitotic cells (in words)” value with U2OS cells is “complete absence of the spindle with diffuse tubulin signal”.
